Here are results for four compounds from patent US20160331871A1, “Medical Devices Containing Nitroprusside and Antimicrobial Agents” (Teleflex Medical Incorporated, priority 2009, published 2016).

This test has as its system Pseudomonas aeruginosa. The test can be described thus: MIC/FIC determination of SNP alone and in combination with antimicrobial agents (96-well microtiter plate, OD 670 nm). It counts as cell-based, Pseudomonas aeruginosa ATCC 27853. The procedure:
A few colonies of Pseudomonas aerugionsa ATCC 27853 were removed from secondary working cultures plated on Trypticase Soy Agar (hereinafter “TSA”) with 5% sheep's blood and added to 10 ml of Trypticase Soy Broth (hereinafter “TSB”). The vials were vortexed for approximately 30 seconds and incubated for 4 hours in a shaker incubator. Following incubation, they were removed and vortexed once more. The optical densities of the inoculum suspensions were read at a wavelength of 670 nm. The inoculum suspensions were subsequently diluted in sterile Cation Adjusted Mueller-Hinton Broth (hereinafter “CAMHB”) to a final concentration of 1-5×10^6 cfu/ml.
SNP was dissolved and diluted in sterile deionized water to get working concentrations of 1%, 0.9%, 0.8%, 0.7%, 0.6%, 0.5%, 0.4%, 0.3%, 0.2%, and 0.1% in the wells of a 96-well micro titer plate.
Chlorhexidine diacetate (hereinafter “CHA”) and gentian violet (hereinafter “GV”) were dissolved in sterile water. Rifampin (hereinafter “Rif”) was dissolved in dimethylsulfoxide (hereinafter “DMSO”). Silver nano particles were dispersed in sterile water.
A sterile 96 well micro titer plate was used to test the following: SNP alone and SNP in combination with CHA, GV, Rif, and Silver at concentrations as stated above. All tests were performed in triplicate.
Once all test wells had been filled, the lid of the plate was replaced and the plate was inserted into a Ziplock™ bag and sealed to reduce evaporation. Each plate was incubated without shaking at 37° C. for 18-46 hours depending on the microorganism.
After the appropriate incubation time had been met, the micro titer plate was removed from the incubator. The plate was then read on a Bio-Tek plate reader at a wavelength of 670 nm with the lid off.

The structures appear in SMILES notation.

Turning to `CC(=O)O.CC(=O)O.NC(=N\CCCCCC/N=C(N)/N=C(\N)Nc1ccc(Cl)cc1)/N=C(\N)Nc1ccc(Cl)cc1` [CHA, Chlorhexidine diacetate], the “inhibitory concentration in combination with SNP as compared to alone” value (shortened to “inhibitory concentration … compared to alone”) was “lower inhibitory concentrations”.

Regarding `N=C(NCCCCCCNC(=N)NC(=N)Nc1ccc(Cl)cc1)NC(=N)Nc1ccc(Cl)cc1.Nc1ccc(P(=O)(O)O)cc1.Nc1ccc(P(=O)(O)O)cc1` [CHP, chlorhexidine dipalmitate], the MIC/FIC is 4 PPM (SNP 0% (agent alone)), 4 PPM (in combination with SNP 0.2%), 1 PPM (in combination with SNP 0.4%) and 0 PPM (in combination with SNP 0.6%).

As for `CN(C)c1ccc(C(=C2C=CC(=[N+](C)C)C=C2)c2ccc(N(C)C)cc2)cc1` [GV, gentian violet], the “inhibitory concentration … compared to alone” value was “lower inhibitory concentrations”. Moreover, the MIC/FIC (SNP 0% (agent alone)) turned out to be 32 PPM. In addition, for the setting “in combination with SNP 0.2%”, the MIC/FIC is 4 PPM. The MIC/FIC (in combination with SNP 0.4%) is listed as 4 PPM. Further, the MIC/FIC (in combination with SNP 0.6%) is 0 PPM.

On to `CO[C@H]1/C=C/O[C@@]2(C)Oc3c(C)c(O)c4c(O)c(c(/C=N/N5CCN(C)CC5)c(O)c4c3C2=O)NC(=O)/C(C)=C\C=C\[C@H](C)[C@H](O)[C@@H](C)[C@@H](O)[C@@H](C)[C@H](OC(C)=O)[C@@H]1C` [Rifampin], for which the “inhibitory concentration … compared to alone” value is “lower inhibitory concentrations”. For the same compound, where the note is “SNP 0% (agent alone)”, the MIC/FIC is 16 PPM. Besides, the MIC/FIC (in combination with SNP 0.2%) is recorded as 16 PPM. For the same compound, the MIC/FIC (in combination with SNP 0.4%) is 2-4 PPM. In addition, the MIC/FIC (in combination with SNP 0.6%) worked out at 0 PPM.
